# According to PubChem BioAssay AID1199 (EPA DSSTox, 2008):
# Active and inactive are the calls of the source.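 How the source made its calls: active means a tumour-causing dose and a tumour site recorded for mice in at least one sex group; inconclusive means only government mouse studies exist and were judged inadequate; inactive means mouse studies exist but none gave tumours.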
# System: mouse carcinogenicity bioassay, TD50 from CPDB
# Experiment: DSSTox (CPDBAS) Carcinogenic Potency Database Summary Mouse Bioassay Results
# Source text: The Carcinogenic Potency Database (CPDB) is a unique and widely used international resource of the results of over 6500 chronic, long-term animal cancer tests on over 1500 chemical substances. The CPDB provides easy access to the bioassay literature, with qualitative and quantitative analyses of both positive and negative experiments that have been published over the past 50 years in the general literature and by the National Cancer Institute/National Toxicology Program. The CPDB standardizes the diverse literature of cancer bioassays that vary widely in protocol, histopathological examination and nomenclature, and in the published author's choices of what information to provide in their papers. Results are reported in the CPDB for tests in rats, mice, hamsters, dogs, and nonhuman primates, and are based on the most positive result among all experiments for each sex-species. The DSSTox CPDBAS (all species) file incorporates data from the CPDB Summary Tables for the full list of over 1500 chemical substances tested in at least one species. Summary bioassay results for Mouse (TD50, tumor sites, male, female, both sexes) are provided in the CPDB Summary Tables and the DSSTox CPDBAS file for over 1000 chemical substances.
# TD50 is a standardized quantitative measure of carcinogenic potency (analogous to an LD50) and is reported in the CPDB Summary Table for each species. Activity Score for actives is computed by mapping of LOG10 (1/TD50_Mouse_mmol) activity values spanning range [MIN, MAX] onto Integer 1-100 Activity Score range, where 100 is highest potency and 1 is lowest: Activity Score = 100 * INTEGER[(log10(1/Activity) - MIN)/(MAX […] MIN)]. If activity is reported but no TD50_Mouse_mmol value is computed, such as for a mixture, the Activity Score is assigned the activity value "50". […] Target sites are reported for each sex-species group with a positive result in the CPDB on the basis of a positive author's opinion for the particular site, using all results from both the general literature and NCI/NTP bioassays. If a chemical has two or more target sites listed, the results may be from different experiments, and a single site may be a target organ in more than one experiment, as well. Blank entry in TargetSites field indicates no results reported.
# [1] = TD50_Mouse_Note: no positive results, TargetSites_Mouse_Female: no positive results
# [2] = TD50_Mouse_Note: TD50 is harmonic mean of more than one positive test, TargetSites_Mouse_Female: lung
# [3] = TD50_Mouse_Note: TD50 is harmonic mean of more than one positive test, harmonic mean of TD50 includes a value for upper 99% confidence li, TargetSites_Mouse_Female: liver
# [4] = TargetSites_Mouse_Female: no positive results
# [5] = TD50_Mouse_Note: no positive results
# [6] = TD50_Mouse_Note: TD50 is harmonic mean of more than one positive test, greater than ten-fold variation among TD50 values for positive res, TargetSites_Mouse_Female: liver
# [7] = TD50_Mouse_Note: TD50 is harmonic mean of more than one positive test, TargetSites_Mouse_Female: stomach
# [8] = TargetSites_Mouse_Female: liver
# [9] = TD50_Mouse_Note: TD50 is harmonic mean of more than one positive test, TargetSites_Mouse_Female: liver
smiles,measurement,setting,value
S=C=Nc1ccccc1,outcome,[1],inactive; no positive results
NNC(=O)c1cccnc1,Potency,[2],1.66 mmol/kg/day
NNC=O,Potency,"TD50_Mouse_Note: TD50 is harmonic mean of more than one positive test, harmonic mean of TD50 includes a value for upper 99% confidence li, TargetSites_Mouse_Female: lung",0.606 mmol/kg/day
CCC1CO1 (stereo not given),outcome,[1],inactive; no positive results
OCCN(CCO)C(=S)S,Potency,"TD50_Mouse_Note: TD50 is harmonic mean of more than one positive test, TargetSites_Mouse_Female: no positive results",0.172 mmol/kg/day
CC(=O)[O][Hg][c]1ccccc1,outcome,[1],inactive; no positive results
CC1=CC(=O)NS(=O)(=O)O1,outcome,[1],inactive; no positive results
ClC1=C(Cl)[C@]2(Cl)[C@@H]3[C@@H]4C[C@@H]([C@H]5O[C@@H]45)[C@@H]3[C@@]1(Cl)C2(Cl)Cl,Potency,[3],0.00239 mmol/kg/day
Clc1ccccc1,outcome,[1],inactive; no positive results
CC(=O)OCc1ccccc1,Potency,"TD50_Mouse_Note: TD50 is harmonic mean of more than one positive test, TargetSites_Mouse_Female: liver, stomach",9.59 mmol/kg/day
O=C(O)COc1ccc(Cl)cc1Cl,outcome,[1],inactive; no positive results
CC(C)(OCc1ccc(-c2ccc(Cl)cc2)cc1)C(=O)O,Potency,[4],0.505 mmol/kg/day
Cc1cc(N)ccc1N,outcome,[1],inactive; no positive results
O=C/C(Cl)=C(/Cl)C(=O)O,outcome,[1],inactive; no positive results
Nc1ccc2oc3ccccc3c2c1,Potency,[3],0.0231 mmol/kg/day
O.O.O.O.O.O.O.O=S(=O)([O-])[O-].[Co+2],Potency,[2],0.00269 mmol/kg/day
Brc1c(Br)c(Br)c(Oc2c(Br)c(Br)c(Br)c(Br)c2Br)c(Br)c1Br,outcome,[1],inactive; no positive results
O=S1OCC2C(CO1)C1(Cl)C(Cl)=C(Cl)C2(Cl)C1(Cl)Cl (stereo not given),outcome,[1],inactive; no positive results
CCCCCCCCCCCCCCCC(=O)OC/C=C(C)/C=C/C=C(C)/C=C/C1=C(C)CCCC1(C)C,outcome,[5],inactive; no positive results
Nc1nc(=S)c2ncn([C@H]3C[C@H](O)[C@@H](CO)O3)c2[nH]1,outcome,"TD50_Mouse_Note: only experiment is NCI/NTP bioassay inadequate, TargetSites_Mouse_Female: NTP bioassay inadequate",ntp bioassay inadequate
ClC1=C(Cl)[C@@]2(Cl)[C@@H]3[C@@H](Cl)[C@H](Cl)C[C@@H]3C1(Cl)C2(Cl)Cl,Potency,[6],0.00334 mmol/kg/day
C=CC(=C)C,Potency,"TD50_Mouse_Note: TD50 is harmonic mean of more than one positive test, TargetSites_Mouse_Female: harderian gland, pituitary gland, vascular system",4.02 mmol/kg/day
CCCCN(N)C=O,Potency,"TD50_Mouse_Note: TD50 is harmonic mean of more than one positive test, TargetSites_Mouse_Female: clitoral gland, lung",0.166 mmol/kg/day
C/C=C/C=C/C=O,Potency,[7],1.83 mmol/kg/day
c1ccc(NNc2ccccc2)cc1,Potency,[8],0.141 mmol/kg/day
Nc1ccc2nc3ccccn3c2n1,Potency,"TD50_Mouse_Note: TD50 is harmonic mean of more than one positive test, TargetSites_Mouse_Female: liver, vascular system",0.0869 mmol/kg/day
O=C(Nc1nc(-c2ccc([N+](=O)[O-])o2)cs1)C(F)(F)F,Potency,TargetSites_Mouse_Female: stomach,0.0325 mmol/kg/day
CN(C)C(=S)[S][Pb][S]C(=S)N(C)C,outcome,[1],inactive; no positive results
Nc1ccc(N)c2c1C(=O)c1c(N)ccc(N)c1C2=O,outcome,[1],inactive; no positive results
CCOP(=S)(OCC)SC1OCCOC1SP(=S)(OCC)OCC (stereo not given),outcome,[1],inactive; no positive results
CCSCCC(N)C(=O)O (stereo not given),Potency,[6],0.437 mmol/kg/day
Cc1ccc(NC(N)=O)cc1,Potency,[4],1.37 mmol/kg/day
O=C(O)CN(CCN(CC(=O)O)CC(=O)O)CC(=O)O,outcome,[1],inactive; no positive results
O=C1NC(=O)C(c2ccccc2)(c2ccccc2)N1,Potency,[8],0.234 mmol/kg/day
ClCC(Cl)CCl,Potency,"TD50_Mouse_Note: TD50 is harmonic mean of more than one positive test, TargetSites_Mouse_Female: harderian gland, liver, oral cavity, stomach, uterus",0.00593 mmol/kg/day
O=C1C(c2[nH]c3ccc(S(=O)(=O)O)cc3c2O)=Nc2ccc(S(=O)(=O)O)cc21,outcome,[1],inactive; no positive results
Cc1cc(=O)[nH]c(=S)[nH]1,outcome,TargetSites_Mouse_BothSexes: no positive results,inactive
Cc1c2ccccc2c(C)c2c1ccc1ccccc12,Potency,TargetSites_Mouse_Female: vascular system,0.000328 mmol/kg/day
FC(F)=C(F)F,Potency,"TD50_Mouse_Note: TD50 is harmonic mean of more than one positive test, TargetSites_Mouse_Female: hematopoietic system, liver, vascular system",0.719 mmol/kg/day
O=CNNc1nc(-c2ccc([N+](=O)[O-])o2)cs1,Potency,"TD50_Mouse_Note: TD50 is harmonic mean of more than one positive test, TargetSites_Mouse_Female: hematopoietic system, stomach",0.0425 mmol/kg/day
CC(CN1CC(=O)NC(=O)C1)N1CC(=O)NC(=O)C1 (stereo not given),Potency,"TD50_Mouse_Note: positive test results only by intraperitoneal or intravenous injection, TargetSites_Mouse_Female: hematopoietic system",0.0883 mmol/kg/day
CCN(Cc1cccc(S(=O)(=O)O)c1)c1ccc(C(=C2C=CC(=[N+](CC)Cc3cccc(S(=O)(=O)[O-])c3)C=C2)c2ccccc2)cc1,outcome,[1],inactive; no positive results
ClC1=C(Cl)C2(Cl)C3C(Cl)OC(Cl)C3C1(Cl)C2(Cl)Cl (stereo not given),outcome,[1],inactive; no positive results
ClC=C(Cl)Cl,Potency,[9],2.61 mmol/kg/day
same,Potency,"TD50_Mouse_Note: TD50 is harmonic mean of more than one positive test, greater than ten-fold variation among TD50 values for positive res, TargetSites_Mouse_Female: liver, lung",12 mmol/kg/day
Cn1cc(C(=O)O)c(=O)c2ccc(/C=C/c3ccc([N+](=O)[O-])o3)nc21,Potency,"TargetSites_Mouse_BothSexes: hematopoietic system, lung, stomach",0.0212 mmol/kg/day
CCCN(CCC)c1c([N+](=O)[O-])cc(C(F)(F)F)cc1[N+](=O)[O-],Potency,"TargetSites_Mouse_Female: liver, lung, stomach",0.984 mmol/kg/day
c1ccc(Nc2ccc(Nc3ccccc3)cc2)cc1,outcome,[1],inactive; no positive results
[Cl-].[Cl-].[Hg+2],outcome,[1],inactive; no positive results
O=C1CCCCC1,outcome,[1],inactive; no positive results
Nc1ccc(-c2ccc(N)c(O)c2)cc1O,Potency,TD50_Mouse_Note: no positive results are statistically significant,1.22 mmol/kg/day
CCCN(CCC)S(=O)(=O)c1ccc(C(=O)O)cc1,Potency,[8],1.89 mmol/kg/day
C=CC(=O)OCC,Potency,[7],3.24 mmol/kg/day
CNC(=O)Oc1cccc2ccccc12,outcome,[1],inactive; no positive results
O=[N+]([O-])c1ccc(Oc2ccc(Cl)cc2Cl)cc1,Potency,[9],0.405 mmol/kg/day
CCN(Cc1cccc(S(=O)(=O)O)c1)c1ccc(C(=C2C=CC(=[N+](CC)Cc3cccc(S(=O)(=O)O)c3)C=C2)c2ccccc2S(=O)(=O)[O-])cc1,outcome,[1],inactive; no positive results
c1ccc2ccccc2c1,Potency,TargetSites_Mouse_Female: lung,1.27 mmol/kg/day
Cc1ccc2c(c1[N+](=O)[O-])C(=O)c1ccccc1C2=O,Potency,"TD50_Mouse_Note: TD50 is harmonic mean of more than one positive test, TargetSites_Mouse_Female: vascular system",0.00584 mmol/kg/day
S=C([S-])NCCNC(=S)[S-].[Zn+2],outcome,[1],inactive; no positive results
CC(N)=O,Potency,[4],51 mmol/kg/day
O=Nc1ccc(NO)cc1,outcome,[1],inactive; no positive results
O=[N+]([O-])c1ccc(NCCO)c(OCCO)c1,outcome,[1],inactive; no positive results
Nc1ccc(-c2ccc(N)c(N)c2)cc1N,Potency,[4],0.8 mmol/kg/day
CC(=O)NNC(C)=O,outcome,[1],inactive; no positive results
CN(C)C(=S)[S][Bi]([S]C(=S)N(C)C)[S]C(=S)N(C)C,outcome,[1],inactive; no positive results
N[C@@H](CCC(=O)O)C(=O)O,outcome,[5],inactive; no positive results
CO[C@H]1/C=C/O[C@@]2(C)Oc3c(C)c(O)c4c(O)c(c(/C=N/N5CCN(C)CC5)c(O)c4c3C2=O)NC(=O)/C(C)=C\C=C\[C@H](C)[C@H](O)[C@@H](C)[C@@H](O)[C@@H](C)[C@H](OC(C)=O)[C@@H]1C,Potency,[8],0.0408 mmol/kg/day
C[C@]12CC[C@@H]3c4ccc(OC(=O)Cc5ccc(N(CCCl)CCCl)cc5)cc4CC[C@H]3[C@@H]1CC[C@@H]2OC(=O)Cc1ccc(N(CCCl)CCCl)cc1,Potency,"TD50_Mouse_Note: TD50 is harmonic mean of more than one positive test, TargetSites_Mouse_Female: hematopoietic system, lung, myocardium, stomach",0.00184 mmol/kg/day
FC(Cl)(Cl)Cl,outcome,[1],inactive; no positive results
CCCCN(CC)C(=O)SCCC,outcome,[1],inactive; no positive results
OCCN(CCO)CCO,Potency,"TD50_Mouse_Note: TD50 is harmonic mean of more than one positive test, TargetSites_Mouse_Female: all tumor bearing animals",0.67 mmol/kg/day
Cc1ccc2ccccc2c1,outcome,[1],inactive; no positive results
Nc1ccc(Cl)c(N)c1,Potency,[8],8.63 mmol/kg/day
Cc1cnc2ccc3c(nc(N)n3C)c2n1,Potency,"TD50_Mouse_Note: TD50 is harmonic mean of more than one positive test, TargetSites_Mouse_Female: liver, lung",0.114 mmol/kg/day
CCN(N)C=O,Potency,"TD50_Mouse_Note: TD50 is harmonic mean of more than one positive test, TargetSites_Mouse_Female: lung, vascular system",0.0318 mmol/kg/day
O=C(O)COc1cc(Cl)c(Cl)cc1Cl,outcome,[1],inactive; no positive results
COc1cc(CNC(=O)CCCC/C=C/C(C)C)ccc1O,Potency,"TD50_Mouse_Note: TD50 is harmonic mean of more than one positive test, no positive results are statistically significant, TargetSites_Mouse_Female: large intestine",0.547 mmol/kg/day
Oc1cccc2cccnc12,outcome,[1],inactive; no positive results
CCNC(=O)Nc1ncc([N+](=O)[O-])s1,Potency,[4],3.51 mmol/kg/day
C=CCOCC1CO1 (stereo not given),Potency,[4],1.59 mmol/kg/day
